Article PMC9421654, “Discovery of Substituted Di(pyridin-2-yl)-1,2,4-thiadiazol-5-amines as Novel Macrofilaricidal Compounds for the Treatment of Human Filarial Infections” (Journal of Medicinal Chemistry, 2022)
pEC50, pIC50: −log10 of the molar value. Where two headings read alike, the source gives them in different places.

Legend:
[1] = tested on: O. gutturosa adult male worms; assay: O. gutturosa adult worm ex vivo assay, motility; type: cell-based, Onchocerca gutturosa; details: Onchocerca gutturosa; for pEC50: read-out: O. gutturosa EC50, adult worm motility, bound stated
Procedure, shortened: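 Adult male O. gutturosa from naturally infected cattle were cultured in supplemented MEM at 37 °C, 5% CO2, with four worms per concentration in serial 1-in-4 dilutions. Motility (0–10 scale) was scored every 24 h to 120 h. EC50 (geomean, n=2) for motility reduction came from 4PL fits, and viability was checked by MTT at 120 h.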

[2] = LogD measurement (octanol-water); type: physicochemical
Procedure, shortened: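 Human and rat liver microsomes (0.3 mg/mL) with 1 mM NADPH and 3µM substrate, 30 minutes at 37 °C in pH 7.4 phosphate/MgCl2, triplicate; LC-MS/MS percentage remaining. LogD: octanol/aqueous buffer (pH 7.4, 2.2, 6.8, 5), 24 h shaking at room temperature. Kinetic solubility: 200 µM, 2% DMSO, 24 h, filtered.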

THLE-2 cells = assay: THLE-2 cytotoxicity assay (ATP); details: for pIC50: Homo sapiens; for THLE (cytotoxicity) ATP LC50: THLE-2 cell line
Procedure, shortened: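 THLE-2 cells in supplemented LHC-8 medium were exposed for 24 or 72 h to final concentrations of 0.01–300 μM. Viability was read as ATP by CellTiter-Glo luminescence and normalized to DMSO vehicle. IC50 came from nonlinear regression of dose-response curves.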

[3] = read-out: O. gutturosa EC50 μM (SD), ex vivo adult worm motility reduction, SD in brackets
[4] = read-out: O. gutturosa EC50 (uM) motility inhibition, supplement, SD in brackets in the PDF table
[5] = supplement, read-out: measured logD
[6] = THLE-2, 24 h, read-out: THLE IC50

Row | SMILES | EC50 [1, 3] [µM] | EC50 [1, 4] [µM] | logD at 24 h ([2]; pH 7.4, read-out: logD) | logD at 24 h [2, 5] | pIC50 (THLE-2 cells; THLE-2, read-out: THLE IC50) | pIC50 (THLE-2 cells; [6]) | THLE (cytotoxicity) ATP LC50 (THLE-2 cells) | pEC50 [1]
1 | Cc1cccnc1Nc1nc(-c2ccc(OC3CC4(C3)CN(C3CC3)C4)cn2)ns1 [Compound 12, 3-[5-[(2-Cyclopropyl-2-azaspiro[3.3]heptan-6-yl)oxy]-2-pyridyl]-N-(3-methyl-2-pyridyl)-1,2,4-thiadiazol-5-mine] | 0.39 | 0.393 | 2.1 | 2.1 | 5.28 | – | – | –
2 | Cc1cccnc1Nc1nc(-c2ccc(OC3CCN(C4CC4)CC3)cn2)ns1 [Compound 19, 3-[5-[(1-Cyclopropyl-4-piperidyl)oxy]-2-pyridyl]-N-(3-methyl-2-pyridyl)-1,2,4-thiadiazol-5-amine] | 0.06 | 0.064 | 3.3 | 3.3 | – | 3.92 | – | –
3 | CC(C)Oc1ccc(-c2nsc(Nc3ncccc3N(C)C)n2)nc1 [Compound 31, N^2-(3-(5-Isopropoxypyridin-2-yl)-1,2,4-thiadiazol-5-yl)-N3,N3-dimethylpyridine-2,3-diamine] | 0.08 | 0.083 | 3.23 | 3.23 | – | 4.44 | did not exhibit significant cellular cytotoxity | –
4 | CC(=O)N(C)c1cccnc1Nc1nc(-c2ccc(OC(C)C)cn2)ns1 [Compound 47, N-(2-((3-(5-Isopropoxypyridin-2-yl)-1,2,4-thiadiazol-5-yl)amino)pyridin-3-yl)-N-methylacetamide] | 1.07 | – | 1.62 | 1.62 | – | – | did not exhibit significant cellular cytotoxity | –
5 | CC(C)Oc1ccc(-c2nsc(Nc3ncccc3N(C)C(=O)C3CC3)n2)nc1 [Compound 50, N-(2-((3-(5-Isopropoxypyridin-2-yl)-1,2,4-thiadiazol-5-yl)amino)pyridin-3-yl)-N-methylcyclopropanecarboxamide] | 0.56 | 0.55 | 2.4 | 2.4 | 5.13 | – | – | –
6 | CC(C)c1ccnc(-c2nsc(Nc3ncccc3C(F)(F)F)n2)c1 [Compound 27] | 0.01 | – | 2.5 | 2.5 | – | – | – | > 7.00
7 | CNc1cccnc1Nc1nc(-c2ccc(OC(C)C)cn2)ns1 [Compound 30] | 0.22 | 0.219 | 2.9 | 2.9 | 4.76 | – | – | –
8 | CN(C)c1cccnc1Nc1nc(-c2ccc(OC3CC3)cn2)ns1 [Compound 32] | 0.74 | 0.743 | 2.5 | 2.5 | 6.10 | – | – | –
9 | CC(C)c1ccnc(-c2nsc(Nc3cc(C(F)(F)F)ccn3)n2)c1 [Compound 35, 3-(4-Isopropylpyridin-2-yl)-N-(4-(trifluoromethyl)pyridin-2-yl)-1,2,4-thiadiazol-5-amine] | 0.05 | – | 3 | 3 | 5.64 | – | – | –
10 | CC(C)Oc1ccc(-c2nsc(Nc3ncccc3C(C)C)n2)nc1 [Compound 25, 3-(5-Isopropoxy-2-pyridyl)-N-(3-isopropyl-2-pyridyl)-1,2,4-thiadiazol-5-amine] | 0.1 | 0.099 | 2.85 | 2.85 | 5.49 | – | – | –
11 | Cc1cccnc1Nc1nc(-c2ccc(OC(C)C)cn2)ns1 [Compound 10, 3-(5-Isopropoxypyridin-2-yl)-N-(3-methylpyridin-2-yl)-1,2,4-thiadiazol-5-amine] | 0.06 | 0.055 | 2.88 | 2.88 | – | 4.42 | – | > 7.00
12 | Cc1ccnc(-c2nsc(Nc3ncccc3C(F)(F)F)n2)c1 [Compound 26, 3-(4-Methylpyridin-2-yl)-N-(3-(trifluoromethyl)pyridin-2-yl)-1,2,4-thiadiazol-5-amine] | 0.03 | 0.029 | 2.45 | 2.45 | – | 4.18 | – | –
13 | Cc1cccnc1Nc1nc(-c2ccc(OC3CC3)cn2)ns1 [Compound 11, 3-(5-Cyclopropoxypyridin-2-yl)-N-(3-methylpyridin-2-yl)-1,2,4-thiadiazol-5-amine] | 0.11 | 0.106 | 3.4 | 3.4 | – | < 3.70 | – | –
